We go through 25 compounds from paper PMC4216211 (Journal of Medicinal Chemistry, 2014).

One may read the Ki as a measure of affinity in units of concentration, obtained from inhibition or displacement.

Values joined by “and” are separate entries in the source; they are usually repeats but may differ in a detail not shown here. Equal values may be shown once.

The target in one test is rat brain TSPO (Rattus norvegicus, UniProt P16257). The test is classed as binding. The following applies: for LipE: pKi (rat) minus clogD.
The target in a further test is human leukocyte LAB TSPO (Homo sapiens, UniProt P30536). The test can be described thus: Ligand binding affinity to human leukocyte LAB TSPO.
The target in a further test is human leukocyte HAB TSPO (Homo sapiens, UniProt P30536, T147A). Nature of the test: Ligand binding affinity to human leukocyte HAB TSPO.
For test [1], the system named is human leukocyte HAB and LAB TSPO. The test can be described thus: Human TSPO genotype sensitivity, Ki in LAB versus HAB leukocytes. The test is classed as binding. The following applies: for (LAB Ki)/(HAB Ki): genotype sensitivity, ratio of Ki.

rat brain TSPO, sequence (P16257 whole entry): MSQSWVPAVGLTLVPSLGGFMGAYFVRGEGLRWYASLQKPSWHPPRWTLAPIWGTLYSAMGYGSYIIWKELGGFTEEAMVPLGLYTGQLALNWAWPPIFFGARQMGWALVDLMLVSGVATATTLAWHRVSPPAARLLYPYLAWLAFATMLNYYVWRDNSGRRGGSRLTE
human leukocyte LAB TSPO, sequence (P30536 whole entry): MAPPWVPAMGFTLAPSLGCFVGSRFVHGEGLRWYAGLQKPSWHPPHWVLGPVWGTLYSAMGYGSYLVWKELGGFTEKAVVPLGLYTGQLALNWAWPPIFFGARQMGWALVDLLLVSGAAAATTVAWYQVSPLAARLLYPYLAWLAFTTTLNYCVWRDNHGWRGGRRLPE
human leukocyte HAB TSPO, sequence (P30536 whole entry T147A): as the sequence (P30536 whole entry) above, with T147A counted along it

At rat brain TSPO, `CCN(CC)C(=O)CCc1cc(-c2ccccc2)nc2ccccc12` [10b, N,N-diethyl-3-(2-phenylquinolin-4-yl)propanamide] showed a Ki of 32 ± 11 nM and a LipE of 2.7 ± 0.2.

On rat brain TSPO, `CCC(Cc1cc(-c2ccccc2)nc2ccccc12)C(=O)N(CC)CC` (stereo not drawn) [10c, N,N-diethyl-2-[(2-phenylquinolin-4-yl)methyl]butanamide] had a Ki of 14 ± 6 nM and a LipE of 2.6 ± 0.2.

Take `CN1CCC(Cc2cc(-c3ccccc3)nc3ccccc23)C1=O` (stereo not drawn) [10d, 1-methyl-3-[(2-phenylquinolin-4-yl)methyl]pyrrolidin-2-one]: at rat brain TSPO, affinity was put at a Ki of 53 ± 22 nM and the LipE worked out at 3.6 ± 0.2.

On rat brain TSPO, `CC(Cc1cc(-c2ccccc2)nc2ccccc12)C(=O)N(C)C` (stereo not drawn) [10e, N,N,2-trimethyl-3-(2-phenylquinolin-4-yl)propanamide] gave a Ki of 40 ± 8 nM and a LipE of 2.8 ± 0.1.

Regarding `CCN(C)C(=O)C(C)Cc1cc(-c2ccccc2)nc2ccccc12` (stereo not drawn) [10f, N-ethyl-N,2-dimethyl-3-(2-phenylquinolin-4-yl)propanamide], on rat brain TSPO, the affinity corresponds to a Ki of 9 ± 2 nM and the LipE is on record as 3.8 ± 0.1.

As to `CCCN(C)C(=O)C(C)Cc1cc(-c2ccccc2)nc2ccccc12` (stereo not drawn) [10g, N,2-dimethyl-3-(2-phenylquinolin-4-yl)-N-propylpropanamide], on rat brain TSPO, the Ki was determined as 1.2 ± 0.4 nM and the LipE is 4.2 ± 0.1.

For the compound `CCCCN(C)C(=O)C(C)Cc1cc(-c2ccccc2)nc2ccccc12` (stereo not drawn) [10h, N-butyl-N,2-dimethyl-3-(2-phenylquinolin-4-yl)propanamide], the values for the inhibitory constant (Ki) at rat brain TSPO, on human leukocyte LAB TSPO and on human leukocyte HAB TSPO were 0.4 ± 0.2 nM, 89 ± 3 nM and 1 ± 0.6 nM, respectively. The compound also displayed a LipE on rat brain TSPO of 3.9 ± 0.2. Besides, in test [1], the “(LAB Ki)/(HAB Ki)” value was found to be 89 ± 50.

At rat brain TSPO, `CCCCCN(C)C(=O)C(C)Cc1cc(-c2ccccc2)nc2ccccc12` (stereo not drawn) [10i, N,2-dimethyl-N-pentyl-3-(2-phenylquinolin-4-yl)propanamide] yielded an inhibitory constant (Ki) of 0.6 ± 0.1 nM and a LipE of 2.6 ± 0.1.

For `CC(Cc1cc(-c2ccccc2)nc2ccccc12)C(=O)N(C)C(C)C` (stereo not drawn) [10j, N,2-dimethyl-3-(2-phenylquinolin-4-yl)-N-(propan-2-yl)propanamide], the Ki at rat brain TSPO is 2.9 ± 0.9 nM; on human leukocyte LAB TSPO, 973 ± 409 nM; at human leukocyte HAB TSPO it was 15 ± 2 nM. For the same compound, the LipE on rat brain TSPO is recorded as 4.3 ± 0.1. Moreover, the “(LAB Ki)/(HAB Ki)” value in test [1] came out at 64 ± 28.

Consider `CC(C)CN(C)C(=O)C(C)Cc1cc(-c2ccccc2)nc2ccccc12` (stereo not drawn) [10l, N,2-dimethyl-N-(2-methylpropyl)-3-(2-phenylquinolin-4-yl)propanamide], for which the Ki at rat brain TSPO is 5 ± 2 nM; on human leukocyte LAB TSPO it was 185 ± 81 nM; at human leukocyte HAB TSPO, 6 ± 2 nM. Moreover, at rat brain TSPO, the LipE came out at 3.3 ± 0.1. For the same compound, in test [1], the “(LAB Ki)/(HAB Ki)” value worked out at 32 ± 18.

In the case of `CC(Cc1cc(-c2ccccc2)nc2ccccc12)C(=O)N(C)c1ccccc1` (stereo not drawn) [10m, N,2-dimethyl-N-phenyl-3-(2-phenylquinolin-4-yl)propanamide], the Ki at rat brain TSPO was 0.9 ± 0.2 nM; at human leukocyte LAB TSPO it was 53 ± 22 nM; at human leukocyte HAB TSPO it was 1.9 ± 0.5 nM. Besides, the LipE on rat brain TSPO turned out to be 3.5 ± 0.1. Further, the “(LAB Ki)/(HAB Ki)” value in test [1] worked out at 27 ± 14.

With `CC(Cc1cc(-c2ccccc2)nc2ccccc12)C(=O)N(C)Cc1ccccc1` (stereo not drawn) [10n, N-benzyl-N,2-dimethyl-3-(2-phenylquinolin-4-yl)propanamide], at rat brain TSPO, the Ki was determined as 5 ± 3 nM and the LipE was determined as 1.8 ± 0.2.

Regarding `CC(Cc1cc(-c2ccccc2)nc2ccccc12)C(=O)N(C)c1ccccn1` (stereo not drawn) [10o, N,2-dimethyl-3-(2-phenylquinolin-4-yl)-N-(pyridin-2-yl)propanamide], the Ki was determined as 1.6 ± 0.6 nM at rat brain TSPO, 119 ± 56 nM on human leukocyte LAB TSPO and 4 ± 1 nM at human leukocyte HAB TSPO. The same compound displayed a LipE on rat brain TSPO of 3.6 ± 0.2. Besides, the “(LAB Ki)/(HAB Ki)” value in test [1] was 30 ± 18.

At rat brain TSPO, `CC(Cc1cc(-c2ccccc2)nc2ccccc12)C(=O)N(C)c1cccnc1` (stereo not drawn) [10p, N,2-dimethyl-3-(2-phenylquinolin-4-yl)-N-(pyridin-3-yl)propanamide] registered a Ki of 10 ± 3 nM and a LipE of 2.7 ± 0.1.

For `CC(Cc1cc(-c2ccccc2)nc2ccccc12)C(=O)N(C)c1ccncc1` (stereo not drawn) [10q, N,2-dimethyl-3-(2-phenylquinolin-4-yl)-N-(pyridin-4-yl)propanamide], on rat brain TSPO, the Ki turned out to be 106 ± 24 nM and the LipE is given as 1.7 ± 0.1.

In the case of `CC(Cc1cc(-c2ccccc2)nc2ccccc12)C(=O)N(C)c1ccccc1F` (stereo not drawn) [10r, N-(2-fluorophenyl)-N,2-dimethyl-3-(2-phenylquinolin-4-yl)propanamide], on rat brain TSPO, affinity was put at a Ki of 0.9 ± 0.2 nM and the LipE is given as 3.5 ± 0.1.

In the case of `CC(Cc1cc(-c2ccccc2)nc2ccccc12)C(=O)N(C)c1cccc(F)c1` (stereo not drawn) [10s, N-(3-fluorophenyl)-N,2-dimethyl-3-(2-phenylquinolin-4-yl)propanamide], on rat brain TSPO, the Ki was determined as 0.8 ± 0.2 nM and the LipE is on record as 3.5 ± 0.1.

At rat brain TSPO, `CC(Cc1cc(-c2ccccc2)nc2ccccc12)C(=O)N(C)c1ccc(F)cc1` (stereo not drawn) [10t, N-(4-fluorophenyl)-N,2-dimethyl-3-(2-phenylquinolin-4-yl)propanamide] yielded a Ki of 0.4 ± 0.1 nM and a LipE of 4.1 ± 0.2.

`CC(Cc1cc(-c2ccccc2Cl)nc2ccccc12)C(=O)N(C)C(C)C` (stereo not drawn) [10u, 3-[2-(2-chlorophenyl)quinolin-4-yl)-N,2-dimethyl-N-(propan-2-yl)propanamide]: on rat brain TSPO, the affinity, expressed as Ki, was 22 ± 6 nM and the LipE is recorded as 3.2 ± 0.1.

As to `CC(Cc1cc(-c2cccc(Cl)c2)nc2ccccc12)C(=O)N(C)C(C)C` (stereo not drawn) [10v, 3-[2-(3-chlorophenyl)quinolin-4-yl)-N,2-dimethyl-N-(propan-2-yl)propanamide], at rat brain TSPO, the affinity corresponds to a Ki of 4 ± 1 nM and the LipE is on record as 3.7 ± 0.1.

With `CC(Cc1cc(-c2ccc(Cl)cc2)nc2ccccc12)C(=O)N(C)C(C)C` (stereo not drawn) [10w, 3-[2-(4-chlorophenyl)quinolin-4-yl)-N,2-dimethyl-N-(propan-2-yl)propanamide], at rat brain TSPO, the Ki was 4 ± 1 nM and the LipE is recorded as 3.6 ± 0.1.

`CC(Oc1cc(-c2ccccc2)nc2ccccc12)C(=O)N(C)c1ccccc1` (stereo not drawn) [15a, N-Methyl-N-phenyl-2-[(2-phenylquinolin-4-yl)oxy]propanamide]: the Ki amounted to 0.07 ± 0.004 nM on rat brain TSPO, 1.3 ± 0.2 nM on human leukocyte LAB TSPO and 0.5 ± 0.2 nM on human leukocyte HAB TSPO. At rat brain TSPO, this compound had a LipE of 5.42 ± 0.03. In test [1], the “(LAB Ki)/(HAB Ki)” value is 2.5 and 2.5 ± 0.9.

Turning to `CC(Oc1ccnc2ccccc12)C(=O)N(C)c1ccccc1` (stereo not drawn) [15b, N-methyl-N-phenyl-2-(quinolin-4-yloxy)propanamide], at rat brain TSPO, the affinity, expressed as Ki, was 5.7 ± 0.5 nM; the “rat TSPO affinity in words” value is listed as “low nanomolar range”; the LipE stood at 5.29 ± 0.04. On human leukocyte LAB TSPO, this compound returned a Ki of 66 ± 22 nM. On human leukocyte HAB TSPO, the “HAB binding affinity in words” value is “low nanomolar” and the Ki came to 3.3 ± 0.9 nM. Further, in test [1], the “(LAB Ki)/(HAB Ki)” value was 20 ± 9.

For the compound `CCN(CC)C(=O)[C@@H](C)Cc1cc(-c2ccccc2)nc2ccccc12` [(S)-10a, (S)-N,N-Diethyl-2-methyl-3-(2-phenylquinolin-4-yl)propanamide], on rat brain TSPO, the Ki is 73 ± 36 nM and the LipE was found to be 2.9 ± 0.1.

With `CCC(C)N(C)C(=O)c1cc2ccccc2c(-c2ccccc2Cl)n1` (stereo not drawn) [compound 1, 1-(2-chlorophenyl)-N-methyl-N-(1-methylpropyl)-3-isoquinolinecarboxamide, reference compound], the “genotype sensitivity in words” value in test [1] (LAB versus HAB TSPO) is listed as “low genotype sensitivity”.
